For four compounds, MIC results are on record in patent US4698352A, “4-oxo-1,4-dihydronicotinic acid derivatives, salts thereof, and antibacterial agents containing the same” (Toyama Chemical Co., Ltd., priority 1982, dated 1987).

Holding throughout (test): Antibacterial activity (MIC), agar dilution
Common to all, as to type: cell-based
In general terms: In agar dilution, organisms are placed on agar that contains the substance at set levels.

The test system of one assay is St. aureus F-137*. The note with it: Staphylococcus aureus, 20 h. The text has this:
(§1) The amount of bacteria inoculated was 10^4 cells per plate (10^6 cells per ml).
(§2) * Penicillinase-producing bacteria

The subject of the next assay is Ps. aeruginosa GN3379*. Conditions: Pseudomonas aeruginosa, 20 h; Ps. aeruginosa GN3379, penicillinase-producing; 10^6 cells per ml; read-out: MIC.
Text: as §1, §2

The next assay relates to Kl. pneumoniae Y-4*. Conditions: Klebsiella pneumoniae, 20 h, Kl. pneumoniae Y-4, penicillinase-producing; 10^6 cells per ml; read-out: MIC.
Text: as §1, §2

A further assay relates to E. coli TK-3*. The note with it: Escherichia coli, 20 h.
Text: as §1, §2

A further assay has as its system E. coli GN5482**. The note with it: Escherichia coli, 20 h; E. coli GN5482, cephalospolinase-producing; 10^6 cells per ml; read-out: MIC.
Text: as §1
(§3) ** Cephalospolinase-producing bacteria

The next assay relates to Pro. vulgaris GN76**. Conditions: Proteus vulgaris.
Text: as §1, §3

A further assay deals with Ps. aeruginosa GN918**. Conditions: Pseudomonas aeruginosa, Ps. aeruginosa GN918, cephalospolinase-producing, 10^6 cells per ml.
Text: as §1, §3

The next assay concerns E. coli NIHJ JC-2. The note with it: Escherichia coli, NIHJJC2, 20 h, E. coli NIHJ JC-2; 10^6 cells per ml; 37° C., 20 hours; read-out: MIC.
Text: as §1

Another assay deals with E. coli TK-111. Conditions: Escherichia coli, TK111, 20 h, E. coli TK-111; 10^6 cells per ml; 37° C., 20 hours; read-out: MIC.
Text: as §1

The subject of a further assay is Ps. aeruginosa S-68. The note with it: Pseudomonas aeruginosa.
Text: as §1

The subject of the next assay is Pro. vulgaris GN3027. Conditions: Proteus vulgaris, GN3027, 20 h, Pro. vulgaris GN3027; 10^6 cells per ml; 37° C., 20 hours; read-out: MIC.
Text: as §1

For another assay, the system named is St. aureus FDA209P. Conditions: Staphylococcus aureus, FDA209P, 20 h.
Text: as §1

A further assay deals with Pro. morganii T-216. Conditions: Morganella morganii, 37° C.
Text: as §1

The subject of the next assay is Ps. aeruginosa IFO3445. Conditions: Pseudomonas aeruginosa.
Text: as §1

For a further assay, the system named is Aci. antitratus A-6. Conditions: 20 h.
Text: as §1

The subject of the next assay is Kl. pneumoniae Y-41. The note with it: Klebsiella pneumoniae, Y41, 10^6 cells per ml, 37° C., 20 hours, read-out: MIC.
Text: as §1

A further assay has as its system Kl. pneumoniae Y-50. Conditions: Klebsiella pneumoniae, Y50, 20 h, 10^6 cells per ml, 37° C., read-out: MIC.
Text: as §1

The subject of another assay is Pro. mirabilis T-111. Conditions: Proteus mirabilis, 37° C.
Text: as §1

For a further assay, the system named is Ent. cloacae IID977. Conditions: Enterobacter cloacae, IID977, 20 h, Ent. cloacae IID977; 10^6 cells per ml; 37° C., 20 hours; read-out: MIC.
Text: as §1

Where [1] appears, read: St. aureus F-137, penicillinase-producing, 10^6 cells per ml, read-out: MIC.
Where [2] appears, read: E. coli TK-3, penicillinase-producing, 10^6 cells per ml, read-out: MIC.
Where [3] appears, read: 20 h, Pro. vulgaris GN76, cephalospolinase-producing, 10^6 cells per ml, read-out: MIC.
[4] abbreviates: S68, Ps. aeruginosa S-68, 10^6 cells per ml, 37° C., 20 hours, read-out: MIC.
Setting [5] is: St. aureus FDA209P, 10^6 cells per ml, 37° C., 20 hours, read-out: MIC.
Where [6] appears, read: T216, 10^6 cells per ml, 20 hours, read-out: MIC.
Setting [7] is: Ps. aeruginosa IFO3445, 10^6 cells per ml, 37° C., 20 hours, read-out: MIC.
The mark [8] stands for this setting: Aci. antitratus A-6, 10^6 cells per ml, 37° C., 20 hours, read-out: MIC.
The mark [9] stands for this setting: T111, 10^6 cells per ml, 20 hours, read-out: MIC.

Converted amounts (≈) assume the structure as drawn. Where two headings read alike, the source gives them in different places.

A word on the MIC: it is the smallest concentration in the dilution series that meets the test's criterion for growth inhibition. For `Cc1cc(O)ccc1-n1cc(C(=O)O)c(=O)cc1-c1ccccc1`, the MIC in the assay with St. aureus F-137* (setting [1]) was 0.2 µg/mL (≈ 0.622 µM); in the assay with Ps. aeruginosa GN3379*, 12.5 µg/mL (≈ 38.9 µM); with Kl. pneumoniae Y-4*, 1.56 µg/mL (≈ 4.85 µM); with E. coli TK-3* (setting [2]) it was 0.39 µg/mL (≈ 1.21 µM); in the assay on E. coli GN5482**, at most 0.05 µg/mL; with Pro. vulgaris GN76** (setting [3]), 0.2 µg/mL (≈ 0.622 µM). For the same compound, the MIC in the assay on Ps. aeruginosa GN918** (GN918, 20 h) is 1.56 µg/mL (≈ 4.85 µM); in the assay with E. coli NIHJ JC-2, 0.2 µg/mL (≈ 0.622 µM); in the assay on E. coli TK-111, 0.1 µg/mL (≈ 0.311 µM); in the assay with Ps. aeruginosa S-68 (setting [4]) it was 3.13 µg/mL (≈ 9.74 µM); with Pro. vulgaris GN3027, at most 0.05 µg/mL; with St. aureus FDA209P (setting [5]), 0.2 µg/mL (≈ 0.622 µM). Besides, the MIC came out at 0.39 µg/mL (≈ 1.21 µM) with Pro. morganii T-216 (setting [6]); 6.25 µg/mL (≈ 19.5 µM) in the assay on Ps. aeruginosa IFO3445 (setting [7]); 0.78 µg/mL (≈ 2.43 µM) in the assay on Aci. antitratus A-6 (setting [8]); 0.78 µg/mL (≈ 2.43 µM) in the assay with Kl. pneumoniae Y-41; 0.1 µg/mL (≈ 0.311 µM) in the assay on Kl. pneumoniae Y-50; 0.78 µg/mL (≈ 2.43 µM) with Pro. mirabilis T-111 (setting [9]). In the assay with Ent. cloacae IID977, the MIC came out at 0.39 µg/mL (≈ 1.21 µM).

As for `CN(C)c1ccc(-c2cc(=O)c(C(=O)O)cn2-c2ccc(OS(=O)(=O)O)cc2)cc1`, the MIC was found to be 3.13 µg/mL (≈ 7.27 µM) in the assay with St. aureus F-137*; 50 µg/mL (≈ 116 µM) in the assay with Ps. aeruginosa GN3379*; 25 µg/mL (≈ 58.1 µM) with Kl. pneumoniae Y-4*; 6.25 µg/mL (≈ 14.5 µM) in the assay on E. coli TK-3* (setting [2]); 0.2 µg/mL (≈ 0.465 µM) with E. coli GN5482**; 3.13 µg/mL (≈ 7.27 µM) in the assay on Pro. vulgaris GN76** (GN76, 20 h). The MIC with Ps. aeruginosa GN918** (20 h, read-out: MIC) turned out to be 12.5 µg/mL (≈ 29 µM); in the assay with E. coli NIHJ JC-2 it was 1.56 µg/mL (≈ 3.62 µM); in the assay on E. coli TK-111, 0.78 µg/mL (≈ 1.81 µM); in the assay with Ps. aeruginosa S-68 (setting [4]), 25 µg/mL (≈ 58.1 µM); in the assay on Pro. vulgaris GN3027, 1.56 µg/mL (≈ 3.62 µM); in the assay on St. aureus FDA209P (setting [5]), 0.78 µg/mL (≈ 1.81 µM). Further, the MIC in the assay on Pro. morganii T-216 (setting [6]) was 12.5 µg/mL (≈ 29 µM); in the assay with Ps. aeruginosa IFO3445 (setting [7]), 50 µg/mL (≈ 116 µM); against Aci. antitratus A-6, 3.13 µg/mL (≈ 7.27 µM); in the assay with Kl. pneumoniae Y-41 it was 25 µg/mL (≈ 58.1 µM); in the assay with Kl. pneumoniae Y-50, 3.13 µg/mL (≈ 7.27 µM); in the assay on Pro. mirabilis T-111 (setting [9]), 25 µg/mL (≈ 58.1 µM). In addition, in the assay with Ent. cloacae IID977, the minimum inhibitory concentration (MIC) was 12.5 µg/mL (≈ 29 µM).

Consider `Cc1nc(-c2ccc(-c3cc(=O)c(C(=O)O)cn3-c3ccc(O)cc3C)cc2)co1`, for which the MIC in the assay with St. aureus F-137* (setting [1]) was 0.1 µg/mL (≈ 0.249 µM); in the assay on Ps. aeruginosa GN3379*, 6.25 µg/mL (≈ 15.5 µM); with Kl. pneumoniae Y-4*, 3.13 µg/mL (≈ 7.78 µM); with E. coli TK-3* (setting [2]), 0.2 µg/mL (≈ 0.497 µM); with E. coli GN5482** it was at most 0.05 µg/mL; in the assay on Pro. vulgaris GN76** (setting [3]) it was 0.78 µg/mL (≈ 1.94 µM). In addition, the MIC with Ps. aeruginosa GN918** (20 h, read-out: MIC) is 0.78 µg/mL (≈ 1.94 µM); in the assay on E. coli NIHJ JC-2 it was 0.1 µg/mL (≈ 0.249 µM); in the assay with E. coli TK-111, at most 0.05 µg/mL; with Ps. aeruginosa S-68 (S68, 20 h), 3.13 µg/mL (≈ 7.78 µM); in the assay on Pro. vulgaris GN3027 it was 0.39 µg/mL (≈ 0.969 µM); in the assay with St. aureus FDA209P (setting [5]), 0.1 µg/mL (≈ 0.249 µM). For the same compound, the MIC against Pro. morganii T-216 (T216, 20 h, 10^6 cells per ml) was 3.13 µg/mL (≈ 7.78 µM); in the assay with Ps. aeruginosa IFO3445 (IFO3445, 20 h), 3.13 µg/mL (≈ 7.78 µM); in the assay on Aci. antitratus A-6 (setting [8]), 0.39 µg/mL (≈ 0.969 µM); in the assay with Kl. pneumoniae Y-41, 1.56 µg/mL (≈ 3.88 µM); with Kl. pneumoniae Y-50, 0.2 µg/mL (≈ 0.497 µM); against Pro. mirabilis T-111 (T111, 20 h, 10^6 cells per ml), 1.56 µg/mL (≈ 3.88 µM). For the same compound, the MIC with Ent. cloacae IID977 is 0.39 µg/mL (≈ 0.969 µM).

As for `COc1ccc(-c2cc(=O)c(C(=O)O)cn2-c2ccc(F)cc2)cc1`, the MIC was found to be 3.13 µg/mL (≈ 9.22 µM) against St. aureus F-137*; 25 µg/mL (≈ 73.7 µM) in the assay with Ps. aeruginosa GN3379*; 12.5 µg/mL (≈ 36.8 µM) in the assay with Kl. pneumoniae Y-4*; 3.13 µg/mL (≈ 9.22 µM) in the assay on E. coli TK-3*; 0.2 µg/mL (≈ 0.589 µM) with E. coli GN5482**; 3.13 µg/mL (≈ 9.22 µM) in the assay on Pro. vulgaris GN76** (GN76, 20 h). Moreover, the MIC came out at 50 µg/mL (≈ 147 µM) with Ps. aeruginosa GN918** (20 h, read-out: MIC); 1.56 µg/mL (≈ 4.6 µM) in the assay with E. coli NIHJ JC-2; 0.78 µg/mL (≈ 2.3 µM) in the assay with E. coli TK-111; 25 µg/mL (≈ 73.7 µM) with Ps. aeruginosa S-68 (setting [4]); 0.39 µg/mL (≈ 1.15 µM) in the assay with Pro. vulgaris GN3027; 3.13 µg/mL (≈ 9.22 µM) against St. aureus FDA209P. Further, the MIC in the assay on Pro. morganii T-216 (setting [6]) was determined as 6.25 µg/mL (≈ 18.4 µM); with Ps. aeruginosa IFO3445 (setting [7]), 25 µg/mL (≈ 73.7 µM); with Aci. antitratus A-6 (setting [8]), 1.56 µg/mL (≈ 4.6 µM); with Kl. pneumoniae Y-41 it was 12.5 µg/mL (≈ 36.8 µM); with Kl. pneumoniae Y-50, 3.13 µg/mL (≈ 9.22 µM); in the assay with Pro. mirabilis T-111 (T111, 20 h, 10^6 cells per ml), 12.5 µg/mL (≈ 36.8 µM). The MIC in the assay with Ent. cloacae IID977 was 6.25 µg/mL (≈ 18.4 µM).
